Assay results published in patent publication US9339471B2, “Long acting dual release product containing carbinoxamine and pseudoephedrine” (E5 PHARMA, LLC, priority 2007, dated 2016).
Like-named read-outs stand apart in the source and are kept apart here. Marks after values point to notes of the source that are not given here.

What was measured:
[1] = Literature 1 (Stockis et al. 1992): bioavailability of 8 mg aqueous solution and 8 mg retard capsule of carbinoxamine; conditions: in vivo, normalized to 4 mg dose
Method: The pharmacokinetics of carbinoxamine maleate have been reported in the literature. Stockis et al., Arzneim.-Forsch 1992, 42(12):1478-81, studied the bioavailability of an 8 mg aqueous solution of carbinoxamine and an 8 mg retard capsule of carbinoxamine.
(§1) A single dose fasted bioavailability study was undertaken using four milligram immediate release carbinoxamine maleate tablets formulated in an immediate release format. Samples were taken over a forty eight hours period after administration of the drug, and the first meal was allowed to be ingested four hours after administration. Table 3 compares the observed pharmacokinetics from this test to those observed by Stockis et al. in Arzneim.-Forsch 1992, 42(12):1478-81, and Stockis et al. in Arzneim.-Forsch 1995, 45(9) 1009-1012.

[2] = Single dose fasted bioavailability study, 4 mg immediate release carbinoxamine maleate tablet; type: in vivo; set-up: Plasma concentration of carbinoxamine: unit not given here; conditions: for Cmax / Tmax / half-life / AUC(0-t) / MRT: 4 mg
Description: as §1
FIG. 1 is a mean plasma concentration-time profile of the carbinoxamine after administering the immediate release tablet in the fasted state from time 0 to time 48 hours. Graph (A) is the linear ordinate; graph (B) is the log-linear ordinate.

[3] = cited from earlier work; for AUC(0-t): AUC0-6
[4] = po, Literature 1, Retard capsule 8 mg
[5] = Literature 1, Aqueous solution 8 mg
[6] = human, plasma, po, Our study, Tablet 4 mg
[7] = human, plasma, po, fasted, Mean
[8] = human, plasma, po, fasted, subject 101
[9] = human, plasma, po, fasted, subject 102
[10] = human, plasma, po, fasted, subject 103
[11] = 4 mg retard capsule, single administration
[12] = 4 mg retard capsule, successive administrations
[13] = Literature 2, Aqueous solution 4 mg
[14] = Literature 2, Retard capsule 4 mg
[15] = Literature 2, Retard capsule SS 4 mg, steady-state (q12 h)

## CN(C)CCOC(c1ccc(Cl)cc1)c1ccccn1 (stereo not drawn) [carbinoxamine, 2-[(4-chlorophenyl)-2-pyridinylmethoxy]-N,N-dimethylethanamine (Z)-2-butenedioate (1:1)]
[1]; [4]
  AUC(0-t): 0.119 µg·h/mL
  Cmax: 8.45 ng/mL
[1]; [5]
  AUC(0-t): 0.143 µg·h/mL
  Cmax: 12 ng/mL
[2]; fasted, 0 h, subject 101T
  Plasma concentration of carbinoxamine: blq
[2]; fasted, 0 h, subject 102T
  Plasma concentration of carbinoxamine: blq
[2]; fasted, 0 h, subject 103T
  Plasma concentration of carbinoxamine: blq
[2]; fasted, 0.5 h, T-Mean
  Plasma concentration of carbinoxamine: 315.41
[2]; fasted, 0.5 h, subject 101T
  Plasma concentration of carbinoxamine: 434.78
[2]; fasted, 0.5 h, subject 102T
  Plasma concentration of carbinoxamine: 459.42
[2]; fasted, 0.5 h, subject 103T
  Plasma concentration of carbinoxamine: 52.04
[2]; fasted, 1 h, T-Mean
  Plasma concentration of carbinoxamine: 4153.31
[2]; fasted, 1 h, subject 101T
  Plasma concentration of carbinoxamine: 5908.19
[2]; fasted, 1 h, subject 102T
  Plasma concentration of carbinoxamine: 4949.36
[2]; fasted, 1 h, subject 103T
  Plasma concentration of carbinoxamine: 1602.38
[2]; fasted, 2 h, T-Mean
  Plasma concentration of carbinoxamine: 6406.31
[2]; fasted, 2 h, subject 101T
  Plasma concentration of carbinoxamine: 6488.14
[2]; fasted, 2 h, subject 102T
  Plasma concentration of carbinoxamine: 5684.72
[2]; fasted, 2 h, subject 103T
  Plasma concentration of carbinoxamine: 7046.07
[2]; fasted, 3 h, T-Mean
  Plasma concentration of carbinoxamine: 7062.72
[2]; fasted, 3 h, subject 101T
  Plasma concentration of carbinoxamine: 8022.80
[2]; fasted, 3 h, subject 102T
  Plasma concentration of carbinoxamine: 6592.16
[2]; fasted, 3 h, subject 103T
  Plasma concentration of carbinoxamine: 6573.21
[2]; fasted, 4 h, T-Mean
  Plasma concentration of carbinoxamine: 6647.30
[2]; fasted, 4 h, subject 101T
  Plasma concentration of carbinoxamine: 7860.85
[2]; fasted, 4 h, subject 102T
  Plasma concentration of carbinoxamine: 6236.91
[2]; fasted, 4 h, subject 103T
  Plasma concentration of carbinoxamine: 5854.14
[2]; fasted, 5 h, T-Mean
  Plasma concentration of carbinoxamine: 6515.83
[2]; fasted, 5 h, subject 101T
  Plasma concentration of carbinoxamine: 7726.57
[2]; fasted, 5 h, subject 102T
  Plasma concentration of carbinoxamine: 6649.03
[2]; fasted, 5 h, subject 103T
  Plasma concentration of carbinoxamine: 5171.89
[2]; fasted, 6 h, T-Mean
  Plasma concentration of carbinoxamine: 5903.78
[2]; fasted, 6 h, subject 101T
  Plasma concentration of carbinoxamine: 7251.86
[2]; fasted, 6 h, subject 102T
  Plasma concentration of carbinoxamine: 6097.18
[2]; fasted, 6 h, subject 103T
  Plasma concentration of carbinoxamine: 4362.30
[2]; fasted, 8 h, T-Mean
  Plasma concentration of carbinoxamine: 5510.70
[2]; fasted, 8 h, subject 101T
  Plasma concentration of carbinoxamine: 6849.38
[2]; fasted, 8 h, subject 102T
  Plasma concentration of carbinoxamine: 5707.15
[2]; fasted, 8 h, subject 103T
  Plasma concentration of carbinoxamine: 3975.57
[2]; fasted, 12 h, T-Mean
  Plasma concentration of carbinoxamine: 4292.77
[2]; fasted, 12 h, subject 101T
  Plasma concentration of carbinoxamine: 5821.63
[2]; fasted, 12 h, subject 102T
  Plasma concentration of carbinoxamine: 4387.40
[2]; fasted, 12 h, subject 103T
  Plasma concentration of carbinoxamine: 2669.29
[2]; fasted, 24 h, T-Mean
  Plasma concentration of carbinoxamine: 2144.60
[2]; fasted, 24 h, subject 101T
  Plasma concentration of carbinoxamine: 2632.77
[2]; fasted, 24 h, subject 102T
  Plasma concentration of carbinoxamine: 2395.51
[2]; fasted, 24 h, subject 103T
  Plasma concentration of carbinoxamine: 1405.53
[2]; fasted, 36 h, T-Mean
  Plasma concentration of carbinoxamine: 1371.30
[2]; fasted, 36 h, subject 101T
  Plasma concentration of carbinoxamine: 1541.30
[2]; fasted, 36 h, subject 102T
  Plasma concentration of carbinoxamine: 1516.80
[2]; fasted, 36 h, subject 103T
  Plasma concentration of carbinoxamine: 1055.79
[2]; fasted, 48 h, T-Mean
  Plasma concentration of carbinoxamine: 876.29
[2]; fasted, 48 h, subject 101T
  Plasma concentration of carbinoxamine: 1102.33
[2]; fasted, 48 h, subject 102T
  Plasma concentration of carbinoxamine: 1003.18
[2]; fasted, 48 h, subject 103T
  Plasma concentration of carbinoxamine: 528.37
[2]; [6]
  Cmax: 7.2 ng/mL
  Tmax: 3.3 h
  half-life: 18.3 h
[2]; [7]
  AUC(0-t): 0.161 µg·h/mL
  Cmax: 7.24 ng/mL
  MRT: 24.1 h
  Tmax: 3.33 h
  half-life: 18.4 h
[2]; human, plasma, po, fasted, Mean, first AUC column
  AUC(0-t): 0.137 µg·h/mL
[2]; [8]
  Cmax: 8.02 ng/mL
  MRT: 24.7 h
  Tmax: 3 h
  half-life: 19.1 h
[2]; human, plasma, po, fasted, subject 101, first AUC column
  AUC(0-t): 0.169 µg·h/mL
[2]; human, plasma, po, fasted, subject 101, second AUC column
  AUC(0-t): 0.2 µg·h/mL
[2]; [9]
  Cmax: 6.65 ng/mL
  MRT: 25.9 h
  Tmax: 5 h
  half-life: 19.1 h
[2]; human, plasma, po, fasted, subject 102, first AUC column
  AUC(0-t): 0.143 µg·h/mL
[2]; human, plasma, po, fasted, subject 102, second AUC column
  AUC(0-t): 0.171 µg·h/mL
[2]; [10]
  Cmax: 7.05 ng/mL
  MRT: 21.7 h
  Tmax: 2 h
  half-life: 16.8 h
[2]; human, plasma, po, fasted, subject 103, first AUC column
  AUC(0-t): 0.0984 µg·h/mL
[2]; human, plasma, po, fasted, subject 103, second AUC column
  AUC(0-t): 0.111 µg·h/mL
[2]; human, plasma, po, Our study, Tablet 4 mg, read-out: AUC0-* ·
  AUC: 0.161 µg·h/mL
[2]; plasma, po, Our study, Tablet 4 mg, AUC0-48
  AUC(0-t): 0.137 µg·h/mL
[3]; [11]
  Cmax: 4.5 ng/mL
  Tmax: 6.2 h
  half life: 30 h
[3]; [12]
  Cmax: 13.5 ng/mL
  Tmax: 4.8 h
  half life: 22 h
[3]; [13]
  AUC(0-t): 64^c ng/ml * h
  Cmax: 6.5 ng/mL
  T1/2: 15 h
  Tmax: 2.6 h
[3]; [14]
  AUC(0-t): 57^c ng/ml * h
  Cmax: 4.5 ng/mL
  T1/2: 30 h
  Tmax: 6.2 h
[3]; [15]
  AUC0-* ·: 0.125 µg·h/mL
  Cmax: 13.5 ng/mL
  T1/2: 22 h
  Tmax: 4.8 h
